Measured values taken from patent US20100273748A1, “ANTIMICROBIAL THERAPY” (priority 2006, published 2010).

Key:
S. aureus [1] = test: Electron microscopy of bacterial cell wall lysis; assay type: cell-based
Staphylococcus aureus = test: Bacterial growth inhibition (turbidity OD600) with or without carbonate; assay type: cell-based; settings: for inhibition of S. aureus growth: 32 μM LL-37
keratinocytes = test: Keratinocyte morphology, LDH release and Annexin V/propidium iodide staining; assay type: cell-based, human; settings: 24 hours after butyrate alone or in combination with 1,25D3
FPRL-1 = target: T1, FPRL-1 (Homo sapiens, UniProt P25090); test: FPRL-1 binding
T1 sequence (P25090 1-351): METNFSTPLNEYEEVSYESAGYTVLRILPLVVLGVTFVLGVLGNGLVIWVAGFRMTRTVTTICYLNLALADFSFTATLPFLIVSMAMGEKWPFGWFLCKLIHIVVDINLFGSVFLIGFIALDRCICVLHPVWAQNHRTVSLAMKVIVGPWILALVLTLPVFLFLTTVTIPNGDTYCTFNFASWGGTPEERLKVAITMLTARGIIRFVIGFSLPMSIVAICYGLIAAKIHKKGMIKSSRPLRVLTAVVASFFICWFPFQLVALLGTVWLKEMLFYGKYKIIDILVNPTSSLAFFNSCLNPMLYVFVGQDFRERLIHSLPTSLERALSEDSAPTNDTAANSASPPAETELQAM

[2] = system: Staphylococcus aureus mprF; test: Radial diffusion assay; assay type: cell-based
Method: Sweat collection and processing. Sweat was collected on paper tissues (Kimwipes, Kimberly-Clark, Ga.) from healthy volunteers after exercise. After collection, 20 ml of sweat was centrifuged at 2000 g for 15 min. at 4° C., filtered through a […] (Acrodisc syringe filter, 0.2 mm, low protein binding, Fisher scientific, Tustin, Calif.), and frozen at −80° C. For some experiments sweat was lyophilized to dryness, then suspended in 400 μl of distilled water (DW: cell culture grade, endotoxin free, GibcoBRL, Grand island, NY). For analysis of LL37 processing by sweat, 1.6 nmol of LL-37 synthetic peptide was incubated in 50 ml of sweat for 0, 1, 6, 24 hrs at 37° C. or 4° C. In some experiments proteinase inhibitors including; mixed protease inhibitor cocktail (1tab/10 ml, Roche, Indianapolis, Ind.), […] Bestatin, 10 mg/ml E-64, 10 mg/ml Aprotinin, (Sigma, St Louis, Mo.); 100 mM AEBSF, 100 mM Neutrophil elastase inhibitor (NEI) or 100 mM leukocyte elastase inhibitor (LEI) (Calbiochem, San Diego, Calif.) were added during incubation. After incubation, 2 ml was assayed by radial diffusion assay to determine antibacterial activity. For analysis by HPLC 32 nmoles LL-37 was incubated in 100u1. To control for potential contamination from paper tissues, parallel processing was done on tissues soaked in phosphate-buffered saline (PBS:137 mM NaCl, 2.7 mM KCL, 4.3 mM Na2HPO4-H2O, 1.4 mM KH2PO4, pH 7.4). No antimicrobial activity was detectable in these preparations. Protein concentrations were evaluated by BCA assay (protein assay reagent, Pierce, Rockford, Ill.) or Bradford protein assay (Bio-Rad, Hercules, Calif.) according to manufacture's instructions. Human tissue and blood collection was approved by the UCSD Human Research Protection Program.
Antimicrobial assays. For screening of antimicrobial activity of HPLC fractions, radial diffusion assay was used. Lyophilized HPLC fractions were dissolved in DW (GibcoBRL, Grand Island, N.Y.), and tested against Staphylococcus aureus mprF. Thin plates (1 mm) of 1% agarose in 0.5% tryptone containing approximately 1×10^6 cells/ml of S. aureus mprF were used. 1 mm wells were punched in the plates and […] of samples dissolved in tissue culture grade sterile water were loaded in each well.

neutrophil and mast cell = test: Neutrophil and mast cell chemotaxis; assay type: cell-based
S. aureus [3] = test: Release of cytoplasmic-expressed beta-galactosidase (membrane disruption); assay type: cell-based; settings: with versus without NaHCO3
Method: Release of cytoplasmic-expressed beta-galactosidase was measured from bacteria with and without the addition of NaHCO3.

dendritic cells = test: Pro-inflammatory chemokine release from dendritic cells; assay type: cell-based
IL-8 = IL-8 release from normal human keratinocytes (ELISA); assay type: cell-based
Method: Measurement of IL-8 release from keratinocytes Normal human keratinocytes (NHK) were cultured in EpiLife cell medium (Cascade Biologics, Portland, Oreg.) containing 0.06 mM Ca2+, 1× EpiLife-defined growth supplement (EDGS), 50 U/ml penicillin and […] streptomycin (Invitrogen, Carlsbad, Calif.). Keratinocytes were seeded in a 96-well plate and grown to confluence under standard tissue culture conditions. Cells were incubated with […] LL-37 or LL37-derived peptides (e.g., cathelicidin functional fragments) for 8 hours at 37° C. Supernatants were collected and stored at −20° C. overnight. IL-8 ELISA Assay was performed according to the manufacturer's instructions (BD OptEIA, Pharmingen, San Diego, Calif.). Supernatants were diluted 1:10 for assay. Simultaneously, LDH assays (Roche, Indianapolis, Ind.) were used to assess the cytotoxicity of peptides to keratinocytes. LDH release following peptide exposure was compared to release induced by 1% Triton X100.

[4] = system: wild-type S. aureus (clinical isolate); test: Radial diffusion assay; assay type: cell-based
CYP27B1 = test: qPCR of CYP27B1 mRNA in cultured keratinocytes; assay type: cell-based, human; settings: 24 hours, TGF 1 μg/ml, TNFα 20 ng/ml, TLR2 ligand Malp-2
Method: Cell culture and stimuli. Human keratinocytes were grown in serum-free EpiLife® cell culture media (Cascade Biologics; Portland, Oreg.) containing 0.06 mM Ca2+ and 1× EpiLife® defined growth supplement (EDGS) at 37° C. under standard tissue culture conditions. Stock cultures were maintained for up to five passages in this media with the addition of 50 U/mL penicillin and 50 μg/mL streptomycin. HaCaT keratinocytes were cultured in DMEM (Sigma, St. Louis, Mo.) with 10% FCS. Cells at 50-70% confluence were stimulated in fresh medium after preincubation with 1,25(OH)2 vitamin D3 (1,25D3; 0.1-100 nM, 4-24 h; Sigma). Alternatively, NHEK were stimulated in the presence of 1,25D3 (0.1-100 nM). […]
Real-time RT-PCR (qPCR). […] Expression of cathelicidin and GAPDH was analysed by real-time RT-PCR. […] Fold induction relative to the vehicle treated control in in vitro experiments was calculated using the comparative Ct method, where ΔΔCt is ΔCt(stimulant)-ΔCt(vehicle), ΔCt is Ct(gene)-Ct(GAPDH) and Ct is the cycle at which an arbitrary detection threshold is crossed. For quantification of transcript abundance in tissue samples target gene expression was normalized to GAPDH and compared to non-treated or non-injured skin.

O=C(O)O [NaHCO3]
bacterial cell wall damage (EM) (S. aureus [1]; 25 mm NaHCO3 alone): no visible effect | effect of NaHCO3 alone on bacterial growth (Staphylococcus aureus; 25 mM NaHCO3, no peptide): without effecting bacterial growth | effect of NaHCO3 alone on bacterial growth (Staphylococcus aureus; high concentrations of NaHCO3): retarded the growth of S. aureus | increase of LL-37 antimicrobial activity by carbonate containing compound (Staphylococcus aureus; medium with 32 μM LL-37, pH 7.4, KHCO3 and Na2CO3 at 50 mM): responsible for this increase

CCCC(=O)O [butyrate]
cell morphology, cell death or apoptosis (keratinocytes): no change was seen in cell morphology, cell death or apoptosis

LLGDFFRKSKEKIGKEFKRIVQRIKDFLRNLVPRTES [LL-37]
binding to FPRL-1 (FPRL-1): bind FPRL-1 | bacterial cell wall damage (EM) (S. aureus [1]; 32 μM LL-37, absence of NaHCO3, four hours): caused a small amount of damage to bacterial cell walls | bacterial cell wall damage (EM) (S. aureus [1]; 32 μM LL-37 with 25 mM NaHCO3, four hours): totally ablated them | zone of inhibition after incubation of LL-37 in PBS or distilled water ([2]; identical conditions in PBS or distilled water): did not affect activity | zone of inhibition after incubation of LL-37 in sweat ([2]; incubation at 37° C. in sweat): increased the zone of inhibition and apparent antimicrobial activity | zone of inhibition after incubation of LL-37 in sweat ([2]; incubation in sweat at 4° C.): did not occur at 4 °C | neutrophil and mast cell chemotaxis (neutrophil and mast cell): induces neutrophil and mast cell chemotaxis | leakage of cytoplasmic protein (beta-galactosidase) (S. aureus [3]): induces greater leakage of cytoplasmic protein with carbonate | pro-inflammatory chemokine release from dendritic cells (dendritic cells): blocks pro-inflammatory chemokine release | inhibition of S. aureus growth (Staphylococcus aureus; TSB media alone, or with NaCl and FBS): inhibited Staphalococcus aureus growth poorly | inhibition of S. aureus growth (Staphylococcus aureus; in the presence of MEM buffers): inhibition was greatly increased | growth of S. aureus (Staphylococcus aureus; 32 μM LL-37 with 25 mM NaHCO3, pH 7.4): complete inhibition of bacterial growth | antimicrobial activity of LL-37, bicarbonate versus pH (Staphylococcus aureus; 50 mM NaHCO3 or 50 mM glycine buffer at various pH): Only bicarbonate containing media was able to confer increased antimicrobial activity | change of minimal inhibitory concentration (MIC) by NaHCO3 (Staphylococcus aureus; 20% TSB, 1 mM NaH2PO4, with or without 50 mM NaHCO3, pH 7.4): greatly reduced | pro-inflammatory release from keratinocytes (IL-8): induces pro-inflammatory release | Radial Diffusion Assay, minimal inhibitory concentration (MIC), S. aureus (wt) [4]: 4 μm

Polymyxin B
leakage of cytoplasmic protein (beta-galactosidase) (S. aureus [3]): induces greater leakage of cytoplasmic protein with carbonate

TNFα
CYP27B1 expression (CYP27B1): had no effect
